Data from patent US6509153B1, “Genetic markers of toxicity preparation and uses” (Exonhit Therapeutics SA, priority 1999, dated 2003).
Counter-ions that a name gives are not always drawn.

test system: not listed separately; experiment: cell viability test (MTT) used to calculate the IC80 concentration; format: cell-based; conditions: human; HepG2 cells, exposure time 4 h; read-out: Concentration (corresponds to an IC80, MTT)
Text: (§1) HepG2 cells are then individually treated with different compounds with different levels of toxicity.

Compound | IC80 at 4 h
CC[C@@]1(O)C(=O)OCc2c1cc1n(c2=O)Cc2cc3ccccc3nc2-1 [Camptothecin] | 1 µg/mL
CCO [Ethanol] | 100000 µM

same assay, conditions: human; HepG2 cells, exposure time 18 h; read-out: Concentration (corresponds to an IC80, MTT)

Compound | IC80 at 18 h | IC80 [µM]
CC(=O)Oc1ccccc1C(=O)O [Aspirin] | 2000 µM | –
Clc1cccc(Cl)c1N=C1NCCN1 [Clonidine] | 150 µM | –
C[C@@H]1C[C@@H]([C@H](O)CC2CC(=O)NC(=O)C2)C(=O)[C@@H](C)C1 [Cycloheximide] | 5 µg/mL | –
O=C(O)Cc1ccccc1Nc1c(Cl)cccc1Cl [Diclofenac] | 50 µg/mL | –
CNC[C@H](O)c1ccc(O)c(O)c1 [Epinephrine Hydrate] | 50 µg/mL | –
CC[C@H]1OC(=O)[C@H](C)[C@@H](O[C@H]2C[C@@](C)(OC)[C@@H](O)[C@H](C)O2)[C@H](C)[C@@H](O[C@@H]2O[C@H](C)C[C@H](N(C)C)[C@H]2O)[C@](C)(O)C[C@@H](C)C(=O)[C@H](C)[C@@H](O)[C@]1(C)O [Erythromycin] | 2.5 µg/mL | –
COc1cc([C@@H]2c3cc4c(cc3[C@@H](O[C@@H]3O[C@@H]5CO[C@@H](C)O[C@H]5[C@H](O)[C@H]3O)[C@H]3COC(=O)[C@H]23)OCO4)cc(OC)c1O [Etoposide] | 50 µg/mL | –
CN(Cc1cnc2nc(N)nc(N)c2n1)c1ccc(C(=O)N[C@@H](CCC(=O)O)C(=O)O)cc1 [Methotrexate] | 0.5 µM | –
CC(=O)Nc1ccc(O)cc1 [Paracetamol] | 1000 µM | –
CN[C@@H]1C[C@H]2O[C@@](C)([C@@H]1OC)n1c3ccccc3c3c4c(c5c6ccccc6n2c5c31)C(=O)NC4 [Staurosporine] | – | 0.05
CC(C)(C)NCC(O)c1cc(O)cc(O)c1 (stereo not shown) [Terbutaline Sulfate] | 0.2 µg/mL | –
CC(C)[C@@H]1NC(=O)[C@H](C)OC(=O)[C@@H](C(C)C)NC(=O)[C@@H](C(C)C)OC(=O)[C@H](C(C)C)NC(=O)[C@H](C)OC(=O)[C@@H](C(C)C)NC(=O)[C@@H](C(C)C)OC(=O)[C@H](C(C)C)NC(=O)[C@H](C)OC(=O)[C@@H](C(C)C)NC(=O)[C@@H](C(C)C)OC1=O [Valinomycin] | 0.015 µM | –
CC[C@]1(O)C[C@@H]2CN(CCc3c([nH]c4ccccc34)[C@@](C(=O)OC)(c3cc4c(cc3OC)N(C)[C@H]3[C@@](O)(C(=O)OC)[C@H](OC(C)=O)[C@]5(CC)C=CCN6CC[C@]43[C@@H]65)C2)C1 [Vinblastine Sulfate] | 30 µM | –

test system: HepG2 cells; experiment: hybridization of probes from treated HepG2 cells on p53 apoptosis filter (toxicity index); format: cell-based; conditions: HepG2 cells treated at IC80 concentration, compared with aspirin
Text: as §1

Compound | splicing events identical to those induced by p53-related toxicity (toxicity index ranking)
O=C(O)Cc1ccccc1Nc1c(Cl)cccc1Cl [Diclofenac] | generates more splicing events identical to those induced by p53 -related toxicity than aspirin
